Results taken from PubChem BioAssay (NCI).
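Values below derive from 48-hour exposures of cells grown in 96-well plates, with endpoints linearly interpolated between the two concentrations bracketing the appropriate inhibition level. Here, GI50 denotes the concentration required for 50% inhibition of growth. TGI marks complete inhibition of growth.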

Legend:
Assay in all cases: NCI-60 cell line screen, 48 h
[1] = tested on: NCI-H23 lung
[2] = tested on: NCI-H460 lung
[3] = tested on: NCI-H522 lung
[4] = tested on: NCI/ADR-RES ovarian
[5] = tested on: OVCAR-3 ovarian
[6] = tested on: OVCAR-4 ovarian
[7] = tested on: OVCAR-5 ovarian
[8] = tested on: OVCAR-8 ovarian
[9] = tested on: PC-3 prostate
[10] = tested on: RPMI-8226 leukemia
[11] = tested on: RXF 393 renal
[12] = tested on: SF-268 CNS
[13] = tested on: SF-295 CNS
[14] = tested on: SF-539 CNS
[15] = tested on: SK-MEL-2 melanoma
[16] = tested on: SK-MEL-28 melanoma
[17] = tested on: SK-MEL-5 melanoma
[18] = tested on: SK-OV-3 ovarian
[19] = tested on: SN12C renal
[20] = tested on: SNB-19 CNS
[21] = tested on: SNB-75 CNS
[22] = tested on: SR leukemia
[23] = tested on: SW-620 colon
[24] = tested on: T-47D breast
[25] = tested on: TK-10 renal
[26] = tested on: U251 CNS
[27] = tested on: UACC-257 melanoma
[28] = tested on: UACC-62 melanoma
[29] = tested on: UO-31 renal

Q: For `COc1ccc(OC)c(N(CCN2C(=O)c3ccccc3C2=O)C(=O)CCl)c1`, which GI50 [1] is on record?
A: 2.26 µM

Q: And the TGI [1]?
A: 12.3 µM

Q: And the GI50 [2]?
A: 13.5 µM

Q: What about the TGI [2] of the same compound?
A: 48.5 µM

Q: And the GI50 [3]?
A: 0.0631 µM

Q: What about the TGI [3] of the same compound?
A: 0.157 µM

Q: What about the GI50 [4] of the same compound?
A: 3.31 µM

Q: And the TGI [4]?
A: > 19.6 µM

Q: What about the GI50 [5] of the same compound?
A: 0.641 µM

Q: And the TGI [5]?
A: 1.62 µM

Q: What about the GI50 [6] of the same compound?
A: 0.23 µM

Q: And the TGI [6]?
A: 0.554 µM

Q: What about the GI50 [7] of the same compound?
A: 1.42 µM

Q: And the TGI [7]?
A: 15.8 µM

Q: And the GI50 [8]?
A: 7.5 µM

Q: And the TGI [8]?
A: 46.3 µM

Q: And the GI50 [9]?
A: 14 µM

Q: And the TGI [9]?
A: 67 µM

Q: And the GI50 [10]?
A: 2.06 µM

Q: What about the TGI [10] of the same compound?
A: 9.34 µM

Q: What about the GI50 [11] of the same compound?
A: 0.615 µM

Q: And the TGI [11]?
A: 12.6 µM

Q: And the GI50 [12]?
A: 0.931 µM

Q: And the TGI [12]?
A: 3.2 µM

Q: And the GI50 [13]?
A: 1.09 µM

Q: And the TGI [13]?
A: 2.44 µM

Q: What about the GI50 [14] of the same compound?
A: 1.13 µM

Q: What about the TGI [14] of the same compound?
A: 2.68 µM

Q: And the GI50 [15]?
A: 12.4 µM

Q: And the TGI [15]?
A: 35.1 µM

Q: And the GI50 [16]?
A: 23.4 µM

Q: And the TGI [16]?
A: 91.2 µM

Q: What about the GI50 [17] of the same compound?
A: 16 µM

Q: What about the TGI [17] of the same compound?
A: 35.3 µM

Q: What about the GI50 [18] of the same compound?
A: 0.688 µM

Q: And the TGI [18]?
A: 2.05 µM

Q: What about the GI50 [19] of the same compound?
A: 22.7 µM

Q: What about the TGI [19] of the same compound?
A: > 100 µM

Q: What about the GI50 [20] of the same compound?
A: 30.4 µM

Q: What about the TGI [20] of the same compound?
A: > 100 µM

Q: What about the GI50 [21] of the same compound?
A: 0.288 µM

Q: And the TGI [21]?
A: 1.22 µM

Q: What about the GI50 [22] of the same compound?
A: 0.119 µM

Q: And the GI50 [23]?
A: 15.3 µM

Q: And the TGI [23]?
A: > 58.5 µM

Q: What about the GI50 [24] of the same compound?
A: 18.9 µM

Q: What about the TGI [24] of the same compound?
A: 54.4 µM

Q: What about the GI50 [25] of the same compound?
A: 16.9 µM

Q: What about the TGI [25] of the same compound?
A: 39.9 µM

Q: What about the GI50 [26] of the same compound?
A: 3.74 µM

Q: What about the TGI [26] of the same compound?
A: 17.8 µM

Q: What about the GI50 [27] of the same compound?
A: 20.7 µM

Q: What about the TGI [27] of the same compound?
A: 88 µM

Q: What about the GI50 [28] of the same compound?
A: 6.24 µM

Q: What about the TGI [28] of the same compound?
A: 21.6 µM

Q: And the GI50 [29]?
A: 0.0667 µM

Q: What about the TGI [29] of the same compound?
A: 0.154 µM
